Assay [1] addresses Casein kinase II subunit alpha (Homo sapiens) (UniProt P68400). Kind of assay: Inhibition of N-terminal 6 X His-tagged recombinant human full length Casein Kinase 2 alpha subunit expressed in Sf21 insect cells using BODIPY-FL-RRRDDDSDDD-CONH2 as substrate preincubated for 20 mins measured after 90 mins by fluorescence-based assay.
Another assay deals with HCT-116. Kind of assay: Antiproliferative activity against human HCT116 cells after 72 hrs by Alamar blue assay. Format: functional. The note with it: HCT-116, 72 h.

pIC50: −log10 of the molar value.

Chain of Casein kinase II subunit alpha (Homo sapiens) (P68400 whole entry, looked up): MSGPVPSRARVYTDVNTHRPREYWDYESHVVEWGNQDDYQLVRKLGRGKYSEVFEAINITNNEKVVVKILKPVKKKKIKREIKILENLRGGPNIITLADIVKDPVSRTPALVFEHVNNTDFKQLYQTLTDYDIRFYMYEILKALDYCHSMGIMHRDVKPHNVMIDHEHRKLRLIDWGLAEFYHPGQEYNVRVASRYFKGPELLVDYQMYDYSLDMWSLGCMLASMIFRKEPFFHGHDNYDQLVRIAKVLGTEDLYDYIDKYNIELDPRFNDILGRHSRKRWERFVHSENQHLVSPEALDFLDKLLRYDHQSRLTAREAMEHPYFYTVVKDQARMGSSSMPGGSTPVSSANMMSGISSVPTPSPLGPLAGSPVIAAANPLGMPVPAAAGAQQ

Regarding `CC(=O)Nc1cc(Nc2cc(NC3CC3)n3ncc(C#N)c3n2)ccc1N(C)CCN(C)C`, the pIC50 in assay [1] was above 5.40. In the assay with HCT-116, this molecule returned a GI50 of 30 nM.

Turning to `CC(=O)Nc1cc(Nc2cc(NC3CC3)n3ncc(C#N)c3n2)ccc1N(C)CCN`, in the assay on HCT-116, the GI50 was 9 nM.

The record behind these values is ChEMBL document CHEMBL3102745, “Inhibition of CK2: An Attractive Therapeutic Target for Cancer Treatment” (ACS Med Chem Lett, 2013).
